Among the data in US12643881B2, “Bicyclic amine CDK12 inhibitors” (Incyte Corporation, priority 2021, dated 2026) are IC50 values, retold here.

Bounds are passed on as bounds.

The target in this assay is T1, CDK12 complexed with Cyclin K (Homo sapiens, UniProt Q9NYV4).
T1 construct: GST (N)
T1 sequence (Q9NYV4 whole entry): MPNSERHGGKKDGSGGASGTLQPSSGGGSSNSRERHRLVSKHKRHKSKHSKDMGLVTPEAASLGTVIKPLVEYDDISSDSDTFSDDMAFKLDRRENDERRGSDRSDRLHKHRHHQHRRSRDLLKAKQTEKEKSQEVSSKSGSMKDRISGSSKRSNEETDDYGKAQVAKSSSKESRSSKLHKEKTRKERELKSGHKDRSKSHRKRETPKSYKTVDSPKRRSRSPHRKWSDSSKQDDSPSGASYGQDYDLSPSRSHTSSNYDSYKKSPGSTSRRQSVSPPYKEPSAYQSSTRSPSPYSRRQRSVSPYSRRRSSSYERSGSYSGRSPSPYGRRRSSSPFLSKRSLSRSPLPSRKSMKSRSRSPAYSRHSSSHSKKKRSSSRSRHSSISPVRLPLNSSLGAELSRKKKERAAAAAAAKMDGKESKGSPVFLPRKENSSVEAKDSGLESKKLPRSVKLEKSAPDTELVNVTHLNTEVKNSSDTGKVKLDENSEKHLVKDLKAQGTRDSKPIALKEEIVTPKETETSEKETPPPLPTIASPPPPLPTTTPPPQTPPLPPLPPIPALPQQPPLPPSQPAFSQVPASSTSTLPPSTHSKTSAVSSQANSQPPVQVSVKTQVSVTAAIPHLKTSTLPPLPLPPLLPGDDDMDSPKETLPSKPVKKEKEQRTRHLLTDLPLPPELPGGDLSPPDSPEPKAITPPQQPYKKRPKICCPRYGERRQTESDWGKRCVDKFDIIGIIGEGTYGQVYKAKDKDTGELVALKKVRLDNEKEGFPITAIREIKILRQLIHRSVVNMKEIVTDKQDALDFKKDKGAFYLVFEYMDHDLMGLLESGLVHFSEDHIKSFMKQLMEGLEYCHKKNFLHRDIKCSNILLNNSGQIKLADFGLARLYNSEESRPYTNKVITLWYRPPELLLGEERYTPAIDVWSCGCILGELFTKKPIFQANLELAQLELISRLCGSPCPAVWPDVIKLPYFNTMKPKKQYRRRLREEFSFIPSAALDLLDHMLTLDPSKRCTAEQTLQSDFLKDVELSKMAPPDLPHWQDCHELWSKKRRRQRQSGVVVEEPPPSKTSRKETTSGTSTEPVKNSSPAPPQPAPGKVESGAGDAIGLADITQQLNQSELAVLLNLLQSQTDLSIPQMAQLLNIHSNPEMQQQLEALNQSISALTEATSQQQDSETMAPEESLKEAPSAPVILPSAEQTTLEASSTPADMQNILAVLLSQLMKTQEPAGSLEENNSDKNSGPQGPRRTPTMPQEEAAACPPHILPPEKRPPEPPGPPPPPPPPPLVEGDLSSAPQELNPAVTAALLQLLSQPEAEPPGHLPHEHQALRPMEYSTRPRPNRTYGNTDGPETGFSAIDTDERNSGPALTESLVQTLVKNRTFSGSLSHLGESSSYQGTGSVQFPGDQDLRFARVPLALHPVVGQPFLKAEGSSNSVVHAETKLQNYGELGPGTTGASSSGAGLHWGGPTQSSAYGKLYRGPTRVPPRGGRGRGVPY
T1 sequence (O75909 whole entry partner): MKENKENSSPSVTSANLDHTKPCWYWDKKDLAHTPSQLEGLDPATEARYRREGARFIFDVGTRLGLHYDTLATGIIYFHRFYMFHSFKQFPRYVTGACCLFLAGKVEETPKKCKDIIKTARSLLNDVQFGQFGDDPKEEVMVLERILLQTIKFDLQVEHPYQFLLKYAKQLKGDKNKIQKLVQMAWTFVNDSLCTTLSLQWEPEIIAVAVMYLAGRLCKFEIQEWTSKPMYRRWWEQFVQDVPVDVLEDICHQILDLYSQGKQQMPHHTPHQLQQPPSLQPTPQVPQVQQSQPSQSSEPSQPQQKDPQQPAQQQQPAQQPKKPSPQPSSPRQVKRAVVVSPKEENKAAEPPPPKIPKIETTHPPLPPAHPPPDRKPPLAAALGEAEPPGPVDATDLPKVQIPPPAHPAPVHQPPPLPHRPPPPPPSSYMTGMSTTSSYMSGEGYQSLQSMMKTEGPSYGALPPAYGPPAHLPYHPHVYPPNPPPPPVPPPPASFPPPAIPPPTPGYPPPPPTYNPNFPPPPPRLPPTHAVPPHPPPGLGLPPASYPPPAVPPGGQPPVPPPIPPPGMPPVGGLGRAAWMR
The assay can be described thus: Alternative CDK Enzymatic Assays (HTRF, pre-incubation with compounds and 1 mM ATP), Example A2. Type of assay: biochemical. The note with it: enzyme pre-incubated with compounds and 1 mM ATP for 60 minutes; reaction 120 minutes at 25° C. The text has this:
Example A2. Alternative CDK Enzymatic Assays
The following activity of the CDK enzymes in complex with their respective cyclins we assayed: CDK1 complexed with Cyclin B1; CDK2 complexed with Cyclin E1; CDK4 complexed with Cyclin D1; CDK6 complexed with Cyclin D1; CDK6 complexed with Cyclin D3; CDK9 complexed with Cyclin T1; CDK7 complexed with Cyclin H/MAT1; CDK2 complexed with Cyclin A2; CDK5 complexed with p35; CDK12 complexed with Cyclin K; CDK13 complexed with Cyclin K. These in vitro enzyme activity are assayed using homogeneous time-resolved energy transfer (HTRF), which measures phosphorylation of a peptide substrate. The LANCER Ultra kinase assay (PerkinElmer) uses a ULight™-labeled EIF4E-binding protein 1 (THR37/46) peptide (DYSTTPGGTLFSTTPGTRI (SEQ ID NO: 1)) substrate and a Europium-labeled anti-phospho-4E-BP1 antibody (CDK2, CDK1, CDK4, CDK6, CDK9, CDK12, CDK13) or ULight™-labeled Myelin Basic Protein peptide (VTPRTPPP (SEQ ID NO: 2)) substrate and a Europium-labeled anti-phospho-MBP antibody (CDK7). Each CDK enzyme activity assays utilized human CDK co-expressed as N-terminal GST-tagged protein with its full length cyclin partner using a baculovirus expression system.
Enzyme was pre-incubated with compounds and 1 mM ATP for 60 minutes (CDK 1, 2, 4, 6, 9, 7, 12, 13) prior to the addition of ATP and Ulight-peptide (1 mM and 50 nM final, respectively), in assay buffer containing 50 mM HEPES pH 7.5, 1 mM EGTA, 10 mM MgCl2, 2 mM DTT, 0.05 mg/mL BSA, and 0.01% Tween 20. The reaction was then incubated for 120 minutes at 25° C. incubator. The reactions were stopped by the addition of EDTA and Europium labeled antibody, for a final concentration of 15 mM and 0.5-1.5 nM, respectively. HTRF signals were read after 15-120 minutes. A ratio of fluorescence transferred to the labeled substrate (665 nm) relative to fluorescence of the Europium donor (620 nm) represents the extent of phosphorylation. Ratios for treated wells were normalized to DMSO only (100% activity) and no enzyme (0% activity) controls. Normalized data was analyzed using a three or four parameter dose response curve to determine IC50 for each compound and are shown in Table B. Control reference inhibitors were included on each plate.
For orientation: IC50 means the concentration needed to halve the response being measured. Turning to `C=CC(=O)Nc1cc2nc(N3CCC[C@@H](Nc4ncc(C(F)(F)F)cn4)C3)n(C)c2cc1C` [Example 102, (R)—N-(1,6-Dimethyl-2-(3-((5-(trifluoromethyl)pyrimidin-2-yl)amino)piperidin-1-yl)-1H-benzo[d]imidazol-5-yl)acrylamide], the IC50 was less than 50 nM.
With `C=CC(=O)N1[C@H](C)CN(c2nccn3c(N4C[C@H](F)C[C@@H](Nc5ncc(C(F)(F)F)cn5)C4)ncc23)C[C@@H]1C` [Example 104, 1-((2S,6R)-4-(3-((3R,5R)-3-Fluoro-5-((5-(trifluoromethyl)pyrimidin-2-yl)amino)piperidin-1-yl)imidazo[1,5-a]pyrazin-8-yl)-2,6-dimethylpiperazin-1-yl)prop-2-en-1-one] the figure was 50 to 500 nM; with `C=CC(=O)N1CCC12CN(c1nccn3c(N4C[C@H](F)C[C@@H](Nc5ncc(C(F)(F)F)cn5)C4)ncc13)C2` [Example 105, 1-(6-(3-((3R,5R)-3-Fluoro-5-((5-(trifluoromethyl)pyrimidin-2-yl)amino)piperidin-1-yl)imidazo[1,5-a]pyrazin-8-yl)-1,6-diazaspiro[3.3]heptan-1-yl)prop-2-en-1-one], less than 50 nM.
With `CC#CC(=O)N1C[C@@H]2C[C@H]1CN2c1nccn2c(N3C[C@H](F)C[C@@H](Nc4ncc(C(F)(F)F)cn4)C3)ncc12` [Example 106, 1-((1S,4S)-5-(3-((3R,5R)-3-Fluoro-5-((5-(trifluoromethyl)pyrimidin-2-yl)amino)piperidin-1-yl)imidazo[1,5-a]pyrazin-8-yl)-2,5-diazabicyclo[2.2.1]heptan-2-yl)but-2-yn-1-one], the IC50 is 50 to 500 nM.
With `C=CC(=O)N1C[C@@H]2C[C@H]1CN2c1nccn2c(N3C[C@H](F)C[C@@H](Nc4ncc(C(F)(F)F)cn4)C3)ncc12` [Example 107, 1-((1S,4S)-5-(3-((3R,5R)-3-Fluoro-5-((5-(trifluoromethyl)pyrimidin-2-yl)amino)piperidin-1-yl)imidazo[1,5-a]pyrazin-8-yl)-2,5-diazabicyclo[2.2.1]heptan-2-yl)prop-2-en-1-one] the figure was 50 to 500 nM; with `C=CC(=O)N1CCCCC1c1nccn2c(N3CCC[C@@H](Nc4ncc(C(F)(F)F)cn4)C3)ncc12` (stereo partly drawn) [Example 108, 1-(2-(3-((R)-3-((5-(Trifluoromethyl)pyrimidin-2-yl)amino)piperidin-1-yl)imidazo[1,5-a]pyrazin-8-yl)piperidin-1-yl)prop-2-en-1-one], 50 to 500 nM.
For `C=CC(=O)N1CCC(c2nccn3c(N4CCC[C@@H](Nc5ncc(C(F)(F)F)cn5)C4)ncc23)CC1` [Example 110, (R)-1-(4-(3-(3-((5-(Trifluoromethyl)pyrimidin-2-yl)amino)piperidin-1-yl)imidazo[1,5-a]pyrazin-8-yl)piperidin-1-yl)prop-2-en-1-one] the value was 50 to 500 nM; for `C=CC(=O)Nc1cc2nc(N3C[C@H](Nc4ncc(C(F)(F)F)cn4)C[C@@H](OC)C3)n(C)c2cc1C` [Example 111, N-(2-((3R,5R)-3-Methoxy-5-((5-(trifluoromethyl)pyrimidin-2-yl)amino)piperidin-1-yl)-1,6-dimethyl-1H-benzo[d]imidazol-5-yl)acrylamide], 50 to 500 nM.
For `Cc1cc2c(cc1NC(=O)/C=C/C(C)(C)O)nc(N1C[C@H](F)C[C@@H](Nc3ncc(C(F)(F)F)cn3)C1)n2C` [Example 112, (E)-N-(2-((3R,5R)-3-Fluoro-5-((5-(trifluoromethyl)pyrimidin-2-yl)amino)piperidin-1-yl)-1,6-dimethyl-1H-benzo[d]imidazol-5-yl)-4-hydroxy-4-methylpent-2-enamide] the value was more than 500 nM; for `Cc1cc2c(cc1NC(=O)C#CC(C)(C)O)nc(N1C[C@H](F)C[C@@H](Nc3ncc(C(F)(F)F)cn3)C1)n2C` [Example 113, N-(2-((3R,5R)-3-Fluoro-5-((5-(trifluoromethyl)pyrimidin-2-yl)amino)piperidin-1-yl)-1,6-dimethyl-1H-benzo[d]imidazol-5-yl)-4-hydroxy-4-methylpent-2-ynamide], less than 50 nM.
In the case of `COCC#CC(=O)Nc1cc2nc(N3C[C@H](F)C[C@@H](Nc4ncc(C(F)(F)F)cn4)C3)n(C)c2cc1C` [Example 114, N-(2-((3R,5R)-3-Fluoro-5-((5-(trifluoromethyl)pyrimidin-2-yl)amino)piperidin-1-yl)-1,6-dimethyl-1H-benzo[d]imidazol-5-yl)-4-methoxybut-2-ynamide], the IC50 was less than 50 nM.
For `Cc1cc2c(cc1NC(=O)C#CCO)nc(N1C[C@H](F)C[C@@H](Nc3ncc(C(F)(F)F)cn3)C1)n2C` [Example 115, N-(2-((3R,5R)-3-Fluoro-5-((5-(trifluoromethyl)pyrimidin-2-yl)amino)piperidin-1-yl)-1,6-dimethyl-1H-benzo[d]imidazol-5-yl)-4-hydroxybut-2-ynamide] the value was less than 50 nM.
Regarding `CC#CC(=O)Nc1cc2nc(N3C[C@H](F)C[C@@H](Nc4ncc(C(F)(F)F)cn4)C3)n(C)c2cc1C` [Example 116, N-(2-((3R,5R)-3-Fluoro-5-((5-(trifluoromethyl)pyrimidin-2-yl)amino)piperidin-1-yl)-1,6-dimethyl-1H-benzo[d]imidazol-5-yl)but-2-ynamide], the IC50 lay within 50 to 500 nM.
In the case of `C=C(F)C(=O)Nc1cc2nc(N3C[C@H](F)C[C@@H](Nc4ncc(C(F)(F)F)cn4)C3)n(C)c2cc1C` [Example 117, 2-Fluoro-N-(2-((3R,5R)-3-fluoro-5-((5-(trifluoromethyl)pyrimidin-2-yl)amino)piperidin-1-yl)-1,6-dimethyl-1H-benzo[d]imidazol-5-yl)acrylamide], the IC50 lay in the range of 50 to 500 nM.
For `Cc1cc2c(cc1NC(=O)/C=C/CN1CCCCC1)nc(N1C[C@H](F)C[C@@H](Nc3ncc(C(F)(F)F)cn3)C1)n2C` [Example 118, (E)-N-(2-((3R,5R)-3-Fluoro-5-((5-(trifluoromethyl)pyrimidin-2-yl)amino)piperidin-1-yl)-1,6-dimethyl-1H-benzo[d]imidazol-5-yl)-4-(piperidin-1-yl)but-2-enamide], the IC50 was more than 500 nM.
Take `Cc1cc2c(cc1NC(=O)/C=C\CN(C)C)nc(N1C[C@H](F)C[C@@H](Nc3ncc(C(F)(F)F)cn3)C1)n2C` [Example 119, (Z)-4-(Dimethylamino)-N-(2-((3R,5R)-3-fluoro-5-((5-(trifluoromethyl)pyrimidin-2-yl)amino)piperidin-1-yl)-1,6-dimethyl-1H-benzo[d]imidazol-5-yl)but-2-enamide]: the IC50 is more than 500 nM.
In the case of `Cc1cc2c(cc1NC(=O)/C=C/CN(C)C)nc(N1C[C@H](F)C[C@@H](Nc3ncc(C(F)(F)F)cn3)C1)n2C` [Example 120, (E)-4-(Dimethylamino)-N-(2-((3R,5R)-3-fluoro-5-((5-(trifluoromethyl)pyrimidin-2-yl)amino)piperidin-1-yl)-1,6-dimethyl-1H-benzo[d]imidazol-5-yl)but-2-enamide], the IC50 is more than 500 nM.
For `COC/C=C/C(=O)Nc1cc2nc(N3C[C@H](F)C[C@@H](Nc4ncc(C(F)(F)F)cn4)C3)n(C)c2cc1C` [Example 121, (E)-N-(2-((3R,5R)-3-Fluoro-5-((5-(trifluoromethyl)pyrimidin-2-yl)amino)piperidin-1-yl)-1,6-dimethyl-1H-benzo[d]imidazol-5-yl)-4-methoxybut-2-enamide] the value was 50 to 500 nM; for `C=CC(=O)Nc1ccc2c(c1)nc(N1C[C@H](O)C[C@@H](Nc3ncc(C#N)cn3)C1)n2C` [Example 122, N-(2-((3R,5R)-3-((5-Cyanopyrimidin-2-yl)amino)-5-hydroxypiperidin-1-yl)-1-methyl-1H-benzo[d]imidazol-5-yl)acrylamide], less than 50 nM.
In the case of `C=CC(=O)Nc1ccc2c(c1)nc(N1CCC[C@@H](Nc3ncc(C(F)(F)F)cn3)C1)n2C` [Example 123, (R)—N-(1-Methyl-2-(3-((5-(trifluoromethyl)pyrimidin-2-yl)amino)piperidin-1-yl)-1H-benzo[d]imidazol-5-yl)acrylamide], the half-inhibitory concentration (IC50) was less than 50 nM.
Consider `C=CC(=O)Nc1ccc2c(c1)nc(N1C[C@H](Nc3ncc(C(F)(F)F)cn3)CC(F)(F)C1)n2C` [Example 124, (R)—N-(2-(3,3-Difluoro-5-((5-(trifluoromethyl)pyrimidin-2-yl)amino)piperidin-1-yl)-1-methyl-1H-benzo[d]imidazol-5-yl)acrylamide], for which the IC50 is less than 50 nM.
With `C=CC(=O)Nc1ccc2c(c1)nc(N1CC[C@@H](F)[C@@H](Nc3ncc(C#N)cn3)C1)n2C` [Example 125, N-(2-((3S,4R)-3-((5-Cyanopyrimidin-2-yl)amino)-4-fluoropiperidin-1-yl)-1-methyl-1H-benzo[d]imidazol-5-yl)acrylamide] the figure was less than 50 nM.
